What was measured:
[1] = Storage stability of the polymorphs followed by XRD; format: physicochemical; settings: after 24 months (XRD at 3, 6, 12 and 24 months)
Procedure: The top panel depicts the polymorph at initiation and the bottom three panels depict the polymorph after 24 months. FIG. 5 Panel A: initial control; FIG. 5 Panel B: sample stored for 2 years in open bottle in stability chambers at 25° C./60% relative humidity (RH); FIG. 5 Panel C: sample stored for 2 years in closed bottle in stability chambers at 40° C./75% RH; FIG. 5 Panel D: sample stored for 2 years in open bottle in stability chambers at 40° C./75% RH.
The top panel depicts the polymorph at initiation and the bottom panels depict the polymorph after 3, 6, 12 and 24 months.

[2] = Thermogravimetric analysis (loss of mass before melting/degradation); format: physicochemical; settings: 25° C. to 250° C. at about 10° C./minute
Procedure: Thermogravimetric analysis (TGA) was performed. A 10 to 20 mg of sample of a crystalline form of 4-[(7-methoxy-2,3-dihydro-1,4-benzothiazepin-4(5H)yl)methyl]benzoic acid hemifumarate was placed into an aluminum pan, with nitrogen purge. The sample was equilibrated at 25° C. in a temperature-controlled chamber. The sample was heated at a scan rate of about 10° C./minute to 250° C. under nitrogen purge. A TGA Q5000 thermogravimetric analysis instrument was used.

Stability of the polymorph on storage (XRD, FIG. 10) [1]: stable
Loss of mass before melting degradation (TGA) [2]: < 0.1%
SMILES: COc1ccc2c(c1)CN(Cc1ccc(C(=O)O)cc1)CCS2.O=C(O)/C=C/C(=O)O [Form 2, 4-[(7-methoxy-2,3-dihydro-1,4-benzothiazepin-4(5H)yl)methyl]benzoic acid, hemifumarate]

— patent US11504383B2, “Crystalline forms of a Ryanodine receptor modulator and uses thereof” (ARMGO Pharma, Inc., priority 2021, dated 2022)
